In one assay the target is T1, KCNQ2/3 channels (Homo sapiens, UniProt O43525+O43526).
T1 construct: expressed in transfected cells
The experiment in a line: Fluorescence assay using a voltage sensitive dye (fluorimetry). In kind it is cell-based. The note with it: for Emax: CHO-K1, CHO-K1 cells expressing KCNQ2/3 channels, read-out: Fluorimetry % efficacy (retigabine = 100%); for Emax / Fluorimetry % efficacy (retigabine = 100%): plateau effect relative to saturated Retigabine (50 µM) = 100%; for EC50 / Fluorimetry % efficacy (retigabine = 100%): CHO-K1 cells expressing KCNQ2/3 channels; for EC50: voltage-sensitive dye, KCl depolarization, read-out: Fluorimetry EC50 / IC50. An excerpt:
Method I. Fluorescence assay using a voltage sensitive dye (fluorimetry)
The modulation of the KCNQ opening state (and consequently the voltage potential of a cell) by test compounds such as compounds according to the present invention results in an increased or reduced amount of a voltage-sensitive dye in the cytoplasm of the cells tested. These voltage-sensitive dyes are fluorescent dyes and, therefore, are forming the link between cell potential influenced by KCNQ modulation and fluorescence intensity. A KCNQ agonist leads to an opening of the channel, potassium and dye efflux, a following hyperpolarization and a reduction of the inner fluorescence intensity in a kinetic protocol. If applying an ion jump by KCl depolarization, KCNQ agonists increase the ΔF/F value. An antagonist performs vice versa, respectively.
The 'fluorimetry EC50' is the half maximum effective concentration (EC50), where the concentration of a drug/compound induces a response halfway between the baseline and maximum plateau effect. In other words, said value represents the concentration of a compound, where 50% of its maximal effect in the fluorimetric assay is observed if the substance concentration is graphed against the corresponding ΔF/F values (for which the calculation method is described below). Therefore, 'fluorimetry EC50' is a measure for the compound potency. The compound efficacy is mirrored by 'fluorimetry % efficacy' ('%Efficacy') and refers to the maximum response achievable by the test compound, i.e. the plateau effect. This drug's plateau effect is related to the plateau effect, which can be achieved by applying a saturated concentration of a reference compound, e.g. Retigabine (50 µM), in independent wells of the same experimental plate or series. A compound showing 100% efficacy is as efficacious as the reference compound (Retigabine) with a saturated concentration.
[…] CHO-K1 cells expressing KCNQ2/3 channels are cultivated adherently at 37°C, 5% CO2 and 95% humidity in cell culture bottles (e.g. 80 cm^2 TC flasks, Nunc) with DMEM-high glucose (Sigma Aldrich, D7777) including 10% FCS (PAN Biotech, e.g. 3302-P270521) or alternatively MEM Alpha Medium (1x, liquid, Invitrogen, #22571), 10% fetal calf serum (FCS) (Invitrogen, #10270-106, heat-inactivated) and the necessary selection antibiotics.
Before being sown out for the measurements, the cells are washed with 1 x DPBS buffer Ca^2+/Mg^2+-free (e.g. Invitrogen, #14190-094) and detached from the bottom of the culture vessel by using Accutase (PAA Laboratories, #L11-007) (incubation with Accutase for 15 min at 37°C). The cell number is determined using a CASY™ cell counter (TCC, Schärfe System). Depending on the optimal density for each individual cell line, 20,000-30,000 cells/well/100 µl are seeded onto 96-well Corning™ CellBIND™ assay plates (Flat Clear Bottom Black Polystyrene Microplates, #3340). Freshly seeded cells are then left to settle for one hour at room temperature, followed by incubation for 24 hours at 37°C, 5% CO2 and 95% humidity.
The voltage-sensitive fluorescent dye from the Membrane Potential Assay Kit (Red™ Bulk format part R8123 for FLIPR, MDS Analytical Technologies™) is prepared by dissolving the contents of one vessel Membrane Potential Assay Kit Red Component A in 200 ml of extracellular buffer (ES buffer, 120 mM NaCl, 1 mM KCI, 10 mM HEPES, 2 mM CaCl2, 2 mM MgCl2, 10 mM glucose; pH 7.4). After removal of the nutrient medium, the cells are washed once with 200 µl of ES buffer, then loaded for 45 min at room temperature in 100 µl of dye solution in the dark.
Fluorescence measurements are carried out in a BMG Labtech FLUOstar™, BMG Labtech NOVOstar™ or BMG Labtech POLARstar™ instrument (525 nm excitation, 560 nm emission, Bottom Read mode). […]

Assay [1] concerns withdrawal reflex of the rat tail (tail flick). The experiment in a line: Low-intensity tail flick test (rat). In kind it is in vivo, Male Sprague-Dawley rats. Particulars: MPE [%] at dose 10 mg/kg, dose printed in brackets in the cell. As for the experimental part: Method II. Low-intensity tail flick test (rat)
In the low-intensity tail flick test, the determination of the antinociceptive effect of the compounds according to the invention towards an acute noxious thermal stimulus is carried out by measuring the withdrawal reflex of the rat tail (tail flick) in response to a radiant heat beam (analgesia meter; model 2011 of the company Rhema Labortechnik, Hofheim, Germany) according to the method described by D'Amour and Smith (J. Pharm. Exp. Ther. 72, 74 79 (1941). To this end, the rats were placed in a plexiglas restrainer, and a low-intensity radiant heat beam (48°C) was focused onto the dorsal surface of the tail root. […] Before administration of a compound according to the invention, the animals were pre-tested twice in the course of five minutes and the mean of these measurements was calculated as the pre-test mean. The antinociceptive effect was determined at 20, 40 and 60 min after peroral compound administration. The antinociceptive effect was calculated based on the increase in the tail withdrawal latency according to the following formula and is expressed as percentage of the maximum possible effect (MPE [%]): MPE = [(T1−T0)/(T2−T0)]*100 [formula] […]
(In general: In hot-plate and tail-flick tests a longer latency is read as antinociception.)

Turning to `Cc1cc(N2CCOCC2)nc(C2CC2)c1C(=O)NCCC(O)C(C)(C)C` (single isomer, unassigned) [Example 1a, 2-cyclopropyl-N-(3-hydroxy-4,4-dimethyl-pentyl)-4-methyl-6-morpholin-4-yl-pyridine-3-carboxylic acid amide], at KCNQ2/3 channels, the Emax was 242% and the EC50 amounted to 961 nM.

On to `Cc1cc(N2CCOCC2)nc(C2CC2)c1C(=O)NCCC(O)C(C)(C)C` (single isomer, unassigned) [Example 1b, 2-cyclopropyl-N-(3-hydroxy-4,4-dimethyl-pentyl)-4-methyl-6-morpholin-4-yl-pyridine-3-carboxylic acid amide], for which, at KCNQ2/3 channels, the “Fluorimetry % efficacy (retigabine = 100%)” value (“Fluorimetry % efficacy” below) was 224% and the EC50 is 318 nM. Besides, the “Low intensity tail flick, rat, peroral, ED50 or MPE (dose)” value in assay [1] is on record as 100 (10) %.

With `Cc1cc(N2CCOCC2)nc(C(C)C)c1C(=O)NCCC(O)C(C)(C)C` (single isomer, unassigned) [Example 5a, N-(3-hydroxy-4,4-dimethyl-pentyl)-2-isopropyl-4-methyl-6-morpholin-4-yl-pyridine-3-carboxylic acid amide], on KCNQ2/3 channels, the Emax is 239% and the EC50 was 431 nM.

As for `Cc1cc(N2CCOCC2)nc(C(C)C)c1C(=O)NCCC(O)C(C)(C)C` (single isomer, unassigned) [Example 5b, N-(3-hydroxy-4,4-dimethyl-pentyl)-2-isopropyl-4-methyl-6-morpholin-4-yl-pyridine-3-carboxylic acid amide], on KCNQ2/3 channels, the “Fluorimetry % efficacy” value is on record as 239% and the EC50 is 94 nM.

`Cc1cc(N2CCOCC2)nc(C(C)C)c1C(=O)NCCC(O)C(F)(F)F` (single isomer, unassigned) [Example 6a, 2-Isopropyl-4-methyl-6-morpholin-4-yl-N-(4,4,4-trifluoro-3-hydroxy-butyl)-pyridine-3-carboxylic acid amide]: on KCNQ2/3 channels, the “Fluorimetry % efficacy” value was determined as 206% and the EC50 was determined as 1090 nM.

For `Cc1cc(N2CCOCC2)nc(C(C)C)c1C(=O)NCCC(O)C(F)(F)F` (single isomer, unassigned) [Example 6b, 2-Isopropyl-4-methyl-6-morpholin-4-yl-N-(4,4,4-trifluoro-3-hydroxy-butyl)-pyridine-3-carboxylic acid amide], at KCNQ2/3 channels, the “Fluorimetry % efficacy” value was 149% and the EC50 was 3920 nM.

On to `Cc1cc(N2CCOCC2)nc(C2CC2)c1C(=O)NCCC(O)C(C)(C)C` (stereo not shown) [Example 1, 2-Cyclopropyl-N-(3-hydroxy-4,4-dimethyl-pentyl)-4-methyl-6-morpholin-4-yl-pyridine-3-carboxylic acid amide], for which, at KCNQ2/3 channels, the Emax came to 237% and the EC50 was determined as 529 nM.

In the case of `Cc1cc(N2CCOCC2)nc(C2CC2)c1C(=O)NC[C@@H]1CCCC[C@H]1O` [Example 2, 2-Cyclopropyl-N-[[(1S,2R)-2-hydroxy-cyclohexyl]-methyl]-4-methyl-6-morpholin-4-yl-pyridine-3-carboxylic acid amide], on KCNQ2/3 channels, the Emax was 245% and the EC50 was 483 nM. The “Low intensity tail flick, rat, peroral, ED50 or MPE (dose)” value in assay [1] is recorded as 67 (10) %.

With `Cc1cc(N2CCOCC2)nc(C2CC2)c1C(=O)NC[C@H]1CCCC[C@@H]1O` [Example 3, 2-Cyclopropyl-N-[[(1R,2S)-2-hydroxy-cyclohexyl]-methyl]-4-methyl-6-morpholin-4-yl-pyridine-3-carboxylic acid amide], on KCNQ2/3 channels, the Emax was found to be 99% and the EC50 worked out at 8550 nM.

As to `Cc1cc(N2CCOCC2)nc(C(C)C)c1C(=O)NCCC(O)C(C)(C)C` (stereo not shown) [Example 5, N-(3-Hydroxy-4,4-dimethyl-pentyl)-2-isopropyl-4-methyl-6-morpholin-4-yl-pyridine-3-carboxylic acid amide], at KCNQ2/3 channels, the Emax stood at 230% and the EC50 turned out to be 156 nM.

For `Cc1cc(N2CCOCC2)nc(C(C)C)c1C(=O)NCCC(O)C(F)(F)F` (stereo not shown) [Example 6, 2-Isopropyl-4-methyl-6-morpholin-4-yl-N-(4,4,4-trifluoro-3-hydroxy-butyl)-pyridine-3-carboxylic acid amide], on KCNQ2/3 channels, the Emax was 150% and the EC50 is 1990 nM.

Consider `Cc1cc(N2CCOCC2)nc(C(C)C)c1C(=O)NC[C@@H]1CCCC[C@H]1O` [Example 7, N-[[(1S,2R)-2-Hydroxy-cyclohexyl]-methyl]-2-isopropyl-4-methyl-6-morpholin-4-yl-pyridine-3-carboxylic acid amide], for which, at KCNQ2/3 channels, the Emax is 243% and the EC50 was found to be 185 nM.

For `CCOc1nc(N2CCOCC2)cc(C)c1C(=O)NCCC(O)C(C)(C)C` (stereo not shown) [Example 8, 2-Ethoxy-N-(3-hydroxy-4,4-dimethyl-pentyl)-4-methyl-6-morpholin-4-yl-pyridine-3-carboxylic acid amide], at KCNQ2/3 channels, the Emax was 231% and the EC50 came out at 252 nM.

These data come from patent publication EP2888233B1, “SUBSTITUTED 6-AMINO-NICOTINAMIDES BEARING AN OH-CONTAINING GROUP AS KCNQ2/3 MODULATORS” (Grünenthal GmbH, priority 2012, dated 2013).
